Measured values from ChEMBL document CHEMBL4507275, “Data for DCP probe BI-2545” (2021).

Legend:
[1] = molecular target: Serine/threonine-protein kinase Nek6 (Homo sapiens) (UniProt Q9HC98); settings: Compound concentration 1000.0 nM
[2] = molecular target: cGMP-dependent protein kinase 2 (Homo sapiens) (UniProt Q13237); settings: Compound concentration 1000.0 nM
[3] = tested on: Epidermal growth factor receptor (Homo sapiens), P00533 [L861Q]; settings: Compound concentration 1000.0 nM
[4] = molecular target: Testis-specific serine/threonine-protein kinase 3 (Homo sapiens) (UniProt Q96PN8); settings: Compound concentration 1000.0 nM
[5] = molecular target: Serine/threonine-protein kinase PRP4 homolog (Homo sapiens) (UniProt Q13523); settings: Compound concentration 1000.0 nM
[6] = molecular target: Casein kinase I isoform gamma-3 (Homo sapiens) (UniProt Q9Y6M4); settings: Compound concentration 1000.0 nM
Chain of Casein kinase I isoform gamma-3 (Homo sapiens) (Q9Y6M4 whole entry, looked up, canonical isoform): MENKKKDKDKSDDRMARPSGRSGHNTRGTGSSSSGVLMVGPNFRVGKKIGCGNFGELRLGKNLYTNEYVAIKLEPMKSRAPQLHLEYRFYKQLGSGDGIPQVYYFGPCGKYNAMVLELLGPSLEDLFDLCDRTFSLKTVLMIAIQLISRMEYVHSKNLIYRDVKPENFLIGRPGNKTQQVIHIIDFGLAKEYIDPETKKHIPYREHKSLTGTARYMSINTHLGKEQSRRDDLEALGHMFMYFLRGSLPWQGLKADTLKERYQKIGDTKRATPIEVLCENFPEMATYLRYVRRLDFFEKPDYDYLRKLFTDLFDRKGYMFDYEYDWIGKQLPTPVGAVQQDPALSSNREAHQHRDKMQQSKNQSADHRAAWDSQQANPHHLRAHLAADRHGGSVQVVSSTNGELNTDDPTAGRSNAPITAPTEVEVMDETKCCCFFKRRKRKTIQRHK

[7] = molecular target: Angiopoietin-1 receptor (Homo sapiens) (UniProt Q02763); settings: Compound concentration 1000.0 nM
[8] = molecular target: Mu-type opioid receptor (Homo sapiens) (UniProt P35372); settings: Compound concentration 10.0 uM
Chain of Mu-type opioid receptor (Homo sapiens) (P35372 whole entry): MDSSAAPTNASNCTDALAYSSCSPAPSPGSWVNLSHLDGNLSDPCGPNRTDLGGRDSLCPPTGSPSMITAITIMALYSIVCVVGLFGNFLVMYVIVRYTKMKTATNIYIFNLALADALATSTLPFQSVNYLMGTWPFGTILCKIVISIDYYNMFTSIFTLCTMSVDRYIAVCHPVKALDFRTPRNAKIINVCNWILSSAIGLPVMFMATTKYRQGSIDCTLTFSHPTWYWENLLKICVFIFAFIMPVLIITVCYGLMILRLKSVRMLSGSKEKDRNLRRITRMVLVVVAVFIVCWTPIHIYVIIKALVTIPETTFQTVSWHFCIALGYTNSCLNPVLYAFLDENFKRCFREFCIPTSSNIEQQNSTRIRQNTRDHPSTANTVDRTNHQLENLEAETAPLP

[9] = molecular target: MAP kinase-activated protein kinase 2 (Homo sapiens) (UniProt P49137); settings: Compound concentration 1000.0 nM
[10] = molecular target: Phosphatidylinositol 4-kinase beta (Homo sapiens) (UniProt Q9UBF8); settings: Compound concentration 1000.0 nM
Chain of Phosphatidylinositol 4-kinase beta (Homo sapiens) (Q9UBF8 2-816 limits assumed): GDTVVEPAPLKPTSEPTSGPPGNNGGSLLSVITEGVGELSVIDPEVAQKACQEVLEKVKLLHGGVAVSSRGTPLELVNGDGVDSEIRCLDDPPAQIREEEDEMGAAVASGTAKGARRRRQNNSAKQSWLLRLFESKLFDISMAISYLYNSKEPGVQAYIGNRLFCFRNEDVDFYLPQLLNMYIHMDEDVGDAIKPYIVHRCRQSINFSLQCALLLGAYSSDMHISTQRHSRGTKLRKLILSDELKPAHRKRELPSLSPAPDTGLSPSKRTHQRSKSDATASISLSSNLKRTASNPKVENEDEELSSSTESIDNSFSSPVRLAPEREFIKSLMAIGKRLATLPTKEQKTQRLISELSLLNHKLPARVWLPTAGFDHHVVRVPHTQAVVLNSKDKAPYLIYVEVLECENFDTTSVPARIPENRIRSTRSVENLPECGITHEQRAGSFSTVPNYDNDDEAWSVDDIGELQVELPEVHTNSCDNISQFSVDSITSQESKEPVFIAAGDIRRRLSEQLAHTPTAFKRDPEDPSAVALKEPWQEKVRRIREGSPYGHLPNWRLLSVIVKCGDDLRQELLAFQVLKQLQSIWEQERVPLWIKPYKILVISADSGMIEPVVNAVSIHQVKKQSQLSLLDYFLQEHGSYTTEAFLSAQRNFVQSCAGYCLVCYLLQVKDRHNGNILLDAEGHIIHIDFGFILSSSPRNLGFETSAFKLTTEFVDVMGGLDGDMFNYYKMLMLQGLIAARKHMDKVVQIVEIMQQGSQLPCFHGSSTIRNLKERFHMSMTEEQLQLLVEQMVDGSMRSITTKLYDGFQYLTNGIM

[11] = tested on: Tyrosine-protein kinase ABL1 (Homo sapiens), P00519 [Q252H]; settings: Compound concentration 1000.0 nM
[12] = molecular target: Cyclin-dependent kinase 15 (Homo sapiens) (UniProt Q96Q40); settings: Compound concentration 1000.0 nM
[13] = tested on: Hepatocyte growth factor receptor (Homo sapiens), P08581 [Y1235D]; settings: Compound concentration 1000.0 nM
[14] = molecular target: Cyclin-dependent kinase 11A (Homo sapiens) (UniProt Q9UQ88); settings: Compound concentration 1000.0 nM
[15] = molecular target: Ephrin type-B receptor 1 (Homo sapiens) (UniProt P54762); settings: Compound concentration 1000.0 nM
[16] = molecular target: TGF-beta receptor type-2 (Homo sapiens) (UniProt P37173); settings: Compound concentration 1000.0 nM
[17] = molecular target: Protein kinase C theta type (Homo sapiens) (UniProt Q04759); settings: Compound concentration 1000.0 nM
[18] = molecular target: Macrophage-stimulating protein receptor (Homo sapiens) (UniProt Q04912); settings: Compound concentration 1000.0 nM
[19] = molecular target: Phosphatidylinositol 4-phosphate 5-kinase type-1 alpha (Homo sapiens) (UniProt Q99755); settings: Compound concentration 1000.0 nM
[20] = tested on: Epidermal growth factor receptor (Homo sapiens), P00533 [UNDEFINED MUTATION]; settings: Compound concentration 1000.0 nM
[21] = molecular target: Calcium/calmodulin-dependent protein kinase type 1D (Homo sapiens) (UniProt Q8IU85); settings: Compound concentration 1000.0 nM
Chain of Calcium/calmodulin-dependent protein kinase type 1D (Homo sapiens) (Q8IU85 whole entry, looked up): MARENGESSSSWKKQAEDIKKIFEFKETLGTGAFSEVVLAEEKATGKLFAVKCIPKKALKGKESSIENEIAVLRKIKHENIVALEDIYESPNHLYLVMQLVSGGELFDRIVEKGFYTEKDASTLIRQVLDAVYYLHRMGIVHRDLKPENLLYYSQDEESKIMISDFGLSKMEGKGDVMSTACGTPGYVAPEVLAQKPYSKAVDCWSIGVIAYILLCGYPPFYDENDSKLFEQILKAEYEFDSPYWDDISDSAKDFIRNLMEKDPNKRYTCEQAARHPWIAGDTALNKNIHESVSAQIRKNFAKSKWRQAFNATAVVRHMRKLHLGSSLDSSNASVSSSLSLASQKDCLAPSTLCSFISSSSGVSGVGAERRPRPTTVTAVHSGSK

[22] = molecular target: SRSF protein kinase 1 (Homo sapiens) (UniProt Q96SB4); settings: Compound concentration 1000.0 nM
[23] = molecular target: Serine/threonine-protein kinase 4 (Homo sapiens) (UniProt Q13043); settings: Compound concentration 1000.0 nM
[24] = molecular target: RAF proto-oncogene serine/threonine-protein kinase (Homo sapiens) (UniProt P04049); settings: Compound concentration 1000.0 nM
[25] = tested on: Tyrosine-protein kinase ABL1 (Homo sapiens), P00519 [T315I]; settings: Compound concentration 1000.0 nM
[26] = molecular target: Phosphatidylinositol 3-kinase C2 domain-containing subunit gamma (Homo sapiens) (UniProt O75747); settings: Compound concentration 1000.0 nM
[27] = molecular target: D(4) dopamine receptor (Homo sapiens) (UniProt P21917); settings: Compound concentration 10.0 uM
[28] = molecular target: Myotonin-protein kinase (Homo sapiens) (UniProt Q09013); settings: Compound concentration 1000.0 nM
[29] = molecular target: Phosphatidylinositol 4,5-bisphosphate 3-kinase catalytic subunit delta isoform (Homo sapiens) (UniProt O00329); settings: Compound concentration 1000.0 nM
Chain of Phosphatidylinositol 4,5-bisphosphate 3-kinase catalytic subunit delta isoform (Homo sapiens) (O00329 whole entry, canonical isoform): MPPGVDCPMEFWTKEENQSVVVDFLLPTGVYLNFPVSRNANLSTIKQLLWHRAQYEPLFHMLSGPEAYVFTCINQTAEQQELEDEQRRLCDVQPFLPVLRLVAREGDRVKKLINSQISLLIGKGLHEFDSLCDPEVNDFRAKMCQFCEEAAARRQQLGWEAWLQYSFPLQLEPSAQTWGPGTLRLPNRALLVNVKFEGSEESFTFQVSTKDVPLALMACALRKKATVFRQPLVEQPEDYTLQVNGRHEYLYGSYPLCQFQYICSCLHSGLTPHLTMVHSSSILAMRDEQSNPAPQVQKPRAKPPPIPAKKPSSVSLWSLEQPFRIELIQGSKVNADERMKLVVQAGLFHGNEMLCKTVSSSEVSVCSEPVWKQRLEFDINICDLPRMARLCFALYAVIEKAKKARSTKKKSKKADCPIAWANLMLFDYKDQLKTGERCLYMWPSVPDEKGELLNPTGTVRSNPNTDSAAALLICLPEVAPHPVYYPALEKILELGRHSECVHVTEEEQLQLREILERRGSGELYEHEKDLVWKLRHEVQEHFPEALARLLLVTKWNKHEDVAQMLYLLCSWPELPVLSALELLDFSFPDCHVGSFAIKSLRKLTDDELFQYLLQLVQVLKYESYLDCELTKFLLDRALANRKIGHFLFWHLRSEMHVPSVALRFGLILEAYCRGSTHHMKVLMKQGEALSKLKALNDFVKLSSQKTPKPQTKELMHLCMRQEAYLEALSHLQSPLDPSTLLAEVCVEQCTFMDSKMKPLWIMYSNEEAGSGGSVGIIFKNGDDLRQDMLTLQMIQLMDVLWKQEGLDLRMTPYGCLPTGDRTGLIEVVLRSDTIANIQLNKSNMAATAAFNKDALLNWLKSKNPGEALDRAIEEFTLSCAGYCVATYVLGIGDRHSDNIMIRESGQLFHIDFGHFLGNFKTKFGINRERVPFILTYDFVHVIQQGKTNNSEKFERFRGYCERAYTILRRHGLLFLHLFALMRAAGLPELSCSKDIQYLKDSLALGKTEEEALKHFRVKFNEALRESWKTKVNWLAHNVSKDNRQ

[30] = tested on: Phosphatidylinositol 4,5-bisphosphate 3-kinase catalytic subunit alpha isoform (Homo sapiens), P42336 [E545K]; settings: Compound concentration 1000.0 nM
[31] = molecular target: Casein kinase I isoform alpha-like (Homo sapiens) (UniProt Q8N752); settings: Compound concentration 1000.0 nM
[32] = tested on: Proto-oncogene tyrosine-protein kinase receptor Ret (Homo sapiens), P07949 [V804L]; settings: Compound concentration 1000.0 nM
[33] = molecular target: Serine/threonine-protein kinase TAO1 (Homo sapiens) (UniProt Q7L7X3); settings: Compound concentration 1000.0 nM
[34] = molecular target: Receptor-type tyrosine-protein kinase FLT3 (Homo sapiens) (UniProt P36888); settings: Compound concentration 1000.0 nM
Chain of Receptor-type tyrosine-protein kinase FLT3 (Homo sapiens) (P36888 whole entry): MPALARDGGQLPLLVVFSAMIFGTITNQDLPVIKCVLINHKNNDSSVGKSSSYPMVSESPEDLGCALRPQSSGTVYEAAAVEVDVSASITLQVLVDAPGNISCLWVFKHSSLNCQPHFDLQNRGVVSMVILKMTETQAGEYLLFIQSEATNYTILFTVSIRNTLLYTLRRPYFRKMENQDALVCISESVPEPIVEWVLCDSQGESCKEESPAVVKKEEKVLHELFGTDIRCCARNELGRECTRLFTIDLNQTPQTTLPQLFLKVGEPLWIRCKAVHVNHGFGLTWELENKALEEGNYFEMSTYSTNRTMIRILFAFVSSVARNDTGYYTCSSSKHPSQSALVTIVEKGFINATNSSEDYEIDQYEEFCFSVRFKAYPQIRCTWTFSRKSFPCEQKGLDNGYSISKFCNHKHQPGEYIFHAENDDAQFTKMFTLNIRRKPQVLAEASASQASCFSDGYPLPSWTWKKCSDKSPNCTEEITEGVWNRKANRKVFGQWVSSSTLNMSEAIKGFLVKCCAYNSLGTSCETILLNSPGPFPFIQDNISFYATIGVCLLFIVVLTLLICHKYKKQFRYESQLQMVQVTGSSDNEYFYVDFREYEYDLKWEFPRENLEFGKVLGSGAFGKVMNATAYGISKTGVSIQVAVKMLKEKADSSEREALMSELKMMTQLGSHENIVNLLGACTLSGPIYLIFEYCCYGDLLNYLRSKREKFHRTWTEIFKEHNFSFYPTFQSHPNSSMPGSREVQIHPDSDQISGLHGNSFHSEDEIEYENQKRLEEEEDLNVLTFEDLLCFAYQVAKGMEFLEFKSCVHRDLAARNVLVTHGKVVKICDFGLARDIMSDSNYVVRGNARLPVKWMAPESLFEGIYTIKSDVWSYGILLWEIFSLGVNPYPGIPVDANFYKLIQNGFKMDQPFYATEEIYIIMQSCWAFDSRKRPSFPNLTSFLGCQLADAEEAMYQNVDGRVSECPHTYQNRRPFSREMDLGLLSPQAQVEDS

[35] = molecular target: Receptor-type tyrosine-protein kinase FLT3 (Homo sapiens) (UniProt P36888); settings: Compound concentration 1000.0 nM; remark: listed apart in the source
[36] = molecular target: Serine/threonine-protein kinase mTOR (Homo sapiens) (UniProt P42345); settings: Compound concentration 1000.0 nM
[37] = molecular target: Dual specificity mitogen-activated protein kinase kinase 2 (Homo sapiens) (UniProt P36507); settings: Compound concentration 1000.0 nM
[38] = molecular target: Serine/threonine-protein kinase ULK2 (Homo sapiens) (UniProt Q8IYT8); settings: Compound concentration 1000.0 nM
[39] = molecular target: Tyrosine-protein kinase ITK/TSK (Homo sapiens) (UniProt Q08881); settings: Compound concentration 1000.0 nM
[40] = molecular target: Mitogen-activated protein kinase 1 (Homo sapiens) (UniProt P28482); settings: Compound concentration 1000.0 nM
[41] = molecular target: Mitogen-activated protein kinase kinase kinase 10 (Homo sapiens) (UniProt Q02779); settings: Compound concentration 1000.0 nM
[42] = molecular target: TGF-beta receptor type-1 (Homo sapiens) (UniProt P36897); settings: Compound concentration 1000.0 nM
[43] = molecular target: Serine/threonine-protein kinase Nek2 (Homo sapiens) (UniProt P51955); settings: Compound concentration 1000.0 nM
[44] = molecular target: Rhodopsin kinase GRK7 (Homo sapiens) (UniProt Q8WTQ7); settings: Compound concentration 1000.0 nM
Chain of Rhodopsin kinase GRK7 (Homo sapiens) (Q8WTQ7 whole entry): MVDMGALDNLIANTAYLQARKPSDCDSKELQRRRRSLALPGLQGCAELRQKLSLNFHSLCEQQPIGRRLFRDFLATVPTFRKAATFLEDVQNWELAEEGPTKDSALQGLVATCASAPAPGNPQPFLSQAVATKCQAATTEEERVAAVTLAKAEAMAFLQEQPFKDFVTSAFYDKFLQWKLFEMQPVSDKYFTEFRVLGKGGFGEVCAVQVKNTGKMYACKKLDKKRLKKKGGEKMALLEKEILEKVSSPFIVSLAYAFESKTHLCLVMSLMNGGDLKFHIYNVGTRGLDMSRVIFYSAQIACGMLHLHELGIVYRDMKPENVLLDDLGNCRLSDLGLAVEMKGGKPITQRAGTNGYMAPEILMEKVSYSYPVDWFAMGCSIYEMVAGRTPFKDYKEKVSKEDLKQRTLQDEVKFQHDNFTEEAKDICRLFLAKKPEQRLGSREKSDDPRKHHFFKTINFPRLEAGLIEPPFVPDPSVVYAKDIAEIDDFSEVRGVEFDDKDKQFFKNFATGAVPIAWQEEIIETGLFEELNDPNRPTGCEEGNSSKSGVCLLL

[45] = molecular target: Delta-type opioid receptor (Homo sapiens) (UniProt P41143); settings: Compound concentration 10.0 uM
Chain of Delta-type opioid receptor (Homo sapiens) (P41143 whole entry): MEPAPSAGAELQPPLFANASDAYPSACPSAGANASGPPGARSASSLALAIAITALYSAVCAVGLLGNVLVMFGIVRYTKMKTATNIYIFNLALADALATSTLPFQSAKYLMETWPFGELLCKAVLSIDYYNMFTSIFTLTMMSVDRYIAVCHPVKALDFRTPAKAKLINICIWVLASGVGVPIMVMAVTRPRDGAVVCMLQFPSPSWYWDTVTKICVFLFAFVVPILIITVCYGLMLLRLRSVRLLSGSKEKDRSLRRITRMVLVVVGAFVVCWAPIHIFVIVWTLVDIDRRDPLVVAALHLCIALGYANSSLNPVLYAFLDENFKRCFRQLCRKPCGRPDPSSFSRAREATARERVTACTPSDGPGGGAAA

Cc1nccc(COC(=O)N2C[C@@H]3[C@@H](CNC(=O)c4ccc5[nH]nnc5c4)[C@@H]3C2)n1 [BI 3017]
inactive: residual activity [1] 100% | residual activity [2] 100% | residual activity [3] 100% | residual activity [4] 100% | residual activity [5] 95% | residual activity [6] 100% | residual activity [7] 90% | inhibition [8] 12.1% | residual activity [9] 72% | residual activity [10] 97% | residual activity [11] 93% | residual activity [12] 100% | residual activity [13] 92% | residual activity [14] 100% | residual activity [15] 95% | residual activity [16] 100% | residual activity [17] 91% | residual activity [18] 100% | residual activity [19] 100% | residual activity [20] 100% | residual activity [21] 100% | residual activity [22] 80% | residual activity [23] 100% | residual activity [24] 94% | residual activity [25] 90% | residual activity [26] 99% | inhibition [27] -0.15% | residual activity [28] 98% | residual activity [29] 85% | residual activity [30] 86% | residual activity [31] 100% | residual activity [32] 100% | residual activity [33] 85% | residual activity [34] 89% | residual activity [35] 93% | residual activity [36] 96% | residual activity [37] 84% | residual activity [38] 77% | residual activity [39] 100% | residual activity [40] 100% | residual activity [41] 85% | residual activity [42] 100% | residual activity [43] 100% | residual activity [44] 88% | inhibition [45] -1.41%

O=C(NC[C@@H]1[C@H]2CN(C(=O)OCc3cc(C(F)(F)F)cc(C(F)(F)F)c3)C[C@@H]12)c1ccc2[nH]nnc2c1 [BI 2545]
inactive: residual activity [1] 100% | residual activity [2] 82% | residual activity [3] 100% | residual activity [4] 100% | residual activity [5] 100% | residual activity [6] 89% | residual activity [7] 89% | inhibition [8] 43% | residual activity [9] 100% | residual activity [10] 100% | residual activity [11] 100% | residual activity [12] 75% | residual activity [13] 76% | residual activity [14] 100% | residual activity [15] 100% | residual activity [16] 100% | residual activity [17] 100% | residual activity [18] 100% | residual activity [19] 93% | residual activity [20] 83% | residual activity [21] 100% | residual activity [22] 81% | residual activity [23] 100% | residual activity [24] 100% | residual activity [25] 82% | residual activity [26] 100% | inhibition [27] 6.75% | residual activity [28] 94% | residual activity [29] 75% | residual activity [30] 100% | residual activity [31] 86% | residual activity [32] 100% | residual activity [33] 78% | residual activity [34] 93% | residual activity [35] 91% | residual activity [36] 100% | residual activity [37] 84% | residual activity [38] 97% | residual activity [39] 100% | residual activity [40] 100% | residual activity [41] 83% | residual activity [42] 97% | residual activity [43] 100% | residual activity [44] 100% | inhibition [45] 19.6%
